We go through 7 compounds from ChEMBL document CHEMBL4819150, “The structural simplification of lysergic acid as a natural lead for synthesizing novel anti-Alzheimer agents” (2021).

In experiment [1] the test system is SIM-A9. Kind of experiment: Neuroprotective activity against LPS-induced mouse SIM-A9 cells assessed as increase in cell viability at 1 uM relative to control. It counts as functional, cell-based.
The test system of experiment [2] is SIM-A9. Kind of experiment: Antiinflammatory activity in mouse microglial SIM-A9 cells assessed as reduction in LPS-stimulated nitric oxide release at 1 uM relative to control. In kind it is functional, cell-based.
For experiment [3], the system named is PC-12. Kind of experiment: Neuroprotective activity against rat PC12 cells under glucose and oxygen-deprived condition assessed as increase in cell viability at 1 uM relative to control. In kind it is functional, cell-based.
Experiment [4] relates to PC-12. As to the kind of experiment: Neuroprotective activity against rat PC12 cells under glucose and oxygen-deprived condition assessed as increase in cell viability at 0.1 uM relative to control. In kind it is functional, cell-based.
In experiment [5] the test system is PC-12. As to the kind of experiment: […] activity in rat PC12 cells assessed as reduction in TCN-induced ER stress by measuring increase in cell viability at 1 uM relative to control. In kind it is functional, cell-based.
Experiment [6] deals with PC-12. Kind of experiment: Neuroprotective activity against rat PC12 cells under glucose and oxygen-deprived condition assessed as fold increase in cell viability at 1 uM relative to DPZ. In kind it is functional.

Calls of active or inactive are those of the source. The calls are words filed in the database; no cut-off is given here.

Regarding `COc1cc2c(cc1OC)C(=O)C(CC1CCN(Cc3ccccc3)CC1)C2` (stereo unspecified), the result in the experiment on SIM-A9 [1], in the experiment on SIM-A9 [2], in the experiment with PC-12 [3], with PC-12 [4] and in the experiment on PC-12 [5] was Active.

As for `O=[N+]([O-])C(Cc1c[nH]c2cccc(Br)c12)Cc1c[nH]c2cccc(Br)c12`, the outcome in the experiment with SIM-A9 [1] and in the experiment on PC-12 [5] was inactive. In addition, in the experiment on PC-12 [3], the outcome was Active. Also, the “fold change (FC)” value in the experiment on PC-12 [6] is 10.

Turning to `COC(=O)C[C@H]1c2cccc3[nH]cc(c23)C[C@@H]1[N+](=O)[O-]`, the result with PC-12 [3] and in the experiment on PC-12 [5] was Active. In addition, the “fold change (FC)” value in the experiment on PC-12 [6] is recorded as 10.

As for `CN(C)Cc1c[nH]c2cccc(Br)c12`, the result with SIM-A9 [2], with PC-12 [3] and with PC-12 [5] was Active. The “fold change (FC)” value in the experiment with PC-12 [6] came out at 10.

Consider `CN(C)Cc1c[nH]c2cccc(/C=C/C(N)=O)c12`, for which the outcome in the experiment with SIM-A9 [1], in the experiment with SIM-A9 [2], with PC-12 [3] and in the experiment on PC-12 [5] was Active. Besides, in the experiment with PC-12 [6], the “fold change (FC)” value was 10.

On to `COC(=O)/C=C/c1cccc2[nH]cc(CN(C)C)c12`, for which the result in the experiment on SIM-A9 [1], in the experiment on SIM-A9 [2], with PC-12 [3] and in the experiment with PC-12 [5] was Active. The “fold change (FC)” value in the experiment with PC-12 [6] came out at 10.

On to `COCc1c[nH]c2cccc(/C=C/C(=O)OC)c12`, for which the result in the experiment on SIM-A9 [1], in the experiment with SIM-A9 [2], with PC-12 [3] and in the experiment on PC-12 [5] was Active. In addition, the “fold change (FC)” value in the experiment with PC-12 [6] was 10.
